SMILES | melting point [°C]
CON(C)C(=O)c1ccc(Cl)c(Cl)c1 [Example 511, 3,4-Dichloro-N-methoxy-N-methyl-benzamide] | 39.5 to 43.2
COc1ccc(-n2nc(C[C@H](C(=O)[O-])c3cccc(C)c3)cc2-c2ccc(Cl)c(Cl)c2)cc1.[Na+] (stereo in doubt) [Example 1] | 295.5 to 297.5
COc1ccc(-n2nc(C[C@H](C(=O)[O-])c3cccc(C)c3)cc2-c2ccc(Cl)c(Cl)c2)cc1.[Na+] (stereo in doubt) [Example 505] | 280 to 285
